How the values were obtained:
[1] = target: P-gp (Homo sapiens, UniProt P08183); conditions: cited from earlier work
[2] = target: T1, BCRP (Homo sapiens, UniProt Q9UNQ0); conditions: cited from earlier work
T1 sequence (Q9UNQ0 1-655): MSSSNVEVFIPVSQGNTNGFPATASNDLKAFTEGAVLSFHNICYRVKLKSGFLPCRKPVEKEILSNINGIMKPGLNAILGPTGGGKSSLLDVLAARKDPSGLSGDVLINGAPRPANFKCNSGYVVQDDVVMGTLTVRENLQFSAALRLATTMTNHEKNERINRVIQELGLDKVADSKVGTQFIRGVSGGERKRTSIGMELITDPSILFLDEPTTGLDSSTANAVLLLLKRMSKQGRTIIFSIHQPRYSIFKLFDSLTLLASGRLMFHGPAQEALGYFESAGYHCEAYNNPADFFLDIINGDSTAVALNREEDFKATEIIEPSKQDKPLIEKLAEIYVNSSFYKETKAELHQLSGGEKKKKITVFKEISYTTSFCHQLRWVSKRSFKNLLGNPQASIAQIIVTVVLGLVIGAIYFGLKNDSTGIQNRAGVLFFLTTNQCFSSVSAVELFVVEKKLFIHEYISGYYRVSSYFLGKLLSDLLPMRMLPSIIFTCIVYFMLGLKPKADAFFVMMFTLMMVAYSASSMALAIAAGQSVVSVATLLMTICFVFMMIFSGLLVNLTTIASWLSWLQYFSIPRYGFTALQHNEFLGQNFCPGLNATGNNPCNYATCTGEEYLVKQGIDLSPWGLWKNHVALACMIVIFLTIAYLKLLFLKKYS

[3] = target: BSEP (Homo sapiens, UniProt O95342); conditions: cited from earlier work
Sequence of BSEP (O95342 whole entry): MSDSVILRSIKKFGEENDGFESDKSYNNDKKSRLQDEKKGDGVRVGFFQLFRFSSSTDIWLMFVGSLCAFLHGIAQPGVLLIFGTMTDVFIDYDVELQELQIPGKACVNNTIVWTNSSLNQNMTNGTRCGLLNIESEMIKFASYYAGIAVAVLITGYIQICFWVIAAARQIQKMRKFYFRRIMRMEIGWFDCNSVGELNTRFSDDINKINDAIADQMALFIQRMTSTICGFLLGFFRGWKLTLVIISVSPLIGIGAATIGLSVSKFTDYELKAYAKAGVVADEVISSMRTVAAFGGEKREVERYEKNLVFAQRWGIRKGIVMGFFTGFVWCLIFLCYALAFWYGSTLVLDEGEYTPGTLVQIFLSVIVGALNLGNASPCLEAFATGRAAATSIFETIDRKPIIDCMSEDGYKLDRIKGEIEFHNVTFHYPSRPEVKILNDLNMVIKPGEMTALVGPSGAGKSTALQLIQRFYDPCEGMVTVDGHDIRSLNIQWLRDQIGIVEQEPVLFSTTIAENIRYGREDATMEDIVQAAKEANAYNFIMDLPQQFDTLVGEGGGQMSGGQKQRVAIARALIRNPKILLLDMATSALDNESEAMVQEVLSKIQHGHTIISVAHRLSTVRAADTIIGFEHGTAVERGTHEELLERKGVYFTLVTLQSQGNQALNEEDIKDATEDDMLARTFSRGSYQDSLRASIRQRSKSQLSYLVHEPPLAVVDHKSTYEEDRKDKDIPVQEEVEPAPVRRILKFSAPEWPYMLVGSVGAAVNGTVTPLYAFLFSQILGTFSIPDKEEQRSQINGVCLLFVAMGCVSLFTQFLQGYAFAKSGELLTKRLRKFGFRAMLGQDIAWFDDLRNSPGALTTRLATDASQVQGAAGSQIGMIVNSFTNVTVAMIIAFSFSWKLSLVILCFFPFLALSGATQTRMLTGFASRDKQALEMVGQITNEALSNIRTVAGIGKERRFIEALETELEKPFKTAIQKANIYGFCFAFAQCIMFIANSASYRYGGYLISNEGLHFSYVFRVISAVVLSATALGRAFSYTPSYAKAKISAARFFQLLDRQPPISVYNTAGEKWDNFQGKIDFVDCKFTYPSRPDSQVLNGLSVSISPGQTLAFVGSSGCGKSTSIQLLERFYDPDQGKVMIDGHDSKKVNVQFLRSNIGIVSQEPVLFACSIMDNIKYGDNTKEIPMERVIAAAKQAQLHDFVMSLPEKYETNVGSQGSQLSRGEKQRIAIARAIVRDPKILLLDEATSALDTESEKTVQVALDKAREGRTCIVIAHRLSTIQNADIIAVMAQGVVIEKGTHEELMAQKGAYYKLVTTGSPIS

[4] = Phase-1 drug-drug interaction study of Odalasvir, Simeprevir and Compound (III) in healthy volunteers; assay type: in vivo, human
Text: The following daily doses were employed:

[5] = target: MRP3 (Homo sapiens, UniProt O15438); conditions: cited from earlier work
Sequence of MRP3 (O15438 whole entry): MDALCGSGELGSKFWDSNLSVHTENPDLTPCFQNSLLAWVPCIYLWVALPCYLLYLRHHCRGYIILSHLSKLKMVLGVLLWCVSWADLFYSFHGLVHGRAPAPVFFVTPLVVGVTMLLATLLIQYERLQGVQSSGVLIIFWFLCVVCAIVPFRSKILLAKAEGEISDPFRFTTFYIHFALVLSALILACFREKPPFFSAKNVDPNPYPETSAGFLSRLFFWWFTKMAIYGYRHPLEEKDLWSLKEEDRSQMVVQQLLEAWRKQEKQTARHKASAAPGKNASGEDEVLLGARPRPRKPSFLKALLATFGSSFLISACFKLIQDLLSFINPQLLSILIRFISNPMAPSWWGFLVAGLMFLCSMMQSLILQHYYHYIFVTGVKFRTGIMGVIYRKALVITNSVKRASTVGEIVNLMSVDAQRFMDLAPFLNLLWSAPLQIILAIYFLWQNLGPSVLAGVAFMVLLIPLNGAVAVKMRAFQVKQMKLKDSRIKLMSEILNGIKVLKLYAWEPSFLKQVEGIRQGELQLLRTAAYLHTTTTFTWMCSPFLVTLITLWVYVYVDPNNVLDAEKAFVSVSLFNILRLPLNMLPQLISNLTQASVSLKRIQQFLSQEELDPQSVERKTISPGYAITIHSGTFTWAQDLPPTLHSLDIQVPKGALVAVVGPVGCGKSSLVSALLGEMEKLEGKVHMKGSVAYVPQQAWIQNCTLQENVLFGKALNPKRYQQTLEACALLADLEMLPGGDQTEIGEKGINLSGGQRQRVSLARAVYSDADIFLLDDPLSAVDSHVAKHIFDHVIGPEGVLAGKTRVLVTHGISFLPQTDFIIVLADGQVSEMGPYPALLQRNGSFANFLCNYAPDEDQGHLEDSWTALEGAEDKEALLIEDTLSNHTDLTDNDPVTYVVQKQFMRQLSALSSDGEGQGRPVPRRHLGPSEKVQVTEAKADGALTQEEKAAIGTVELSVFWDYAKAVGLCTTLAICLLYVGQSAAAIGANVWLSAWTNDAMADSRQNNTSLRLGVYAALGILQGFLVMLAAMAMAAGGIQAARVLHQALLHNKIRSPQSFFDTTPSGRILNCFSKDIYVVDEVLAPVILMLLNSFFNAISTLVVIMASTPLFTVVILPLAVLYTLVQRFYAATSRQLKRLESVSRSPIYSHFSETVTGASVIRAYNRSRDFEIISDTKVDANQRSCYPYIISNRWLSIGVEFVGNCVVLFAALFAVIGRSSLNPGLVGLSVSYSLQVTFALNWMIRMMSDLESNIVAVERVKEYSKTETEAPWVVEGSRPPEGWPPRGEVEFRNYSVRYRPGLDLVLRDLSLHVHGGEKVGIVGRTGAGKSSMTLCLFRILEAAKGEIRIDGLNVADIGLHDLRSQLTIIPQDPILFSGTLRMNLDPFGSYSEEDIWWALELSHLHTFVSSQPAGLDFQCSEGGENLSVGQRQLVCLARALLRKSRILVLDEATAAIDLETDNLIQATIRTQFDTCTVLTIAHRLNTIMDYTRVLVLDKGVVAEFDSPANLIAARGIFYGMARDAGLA

[6] = target: MRP2 (Homo sapiens, UniProt Q92887); conditions: cited from earlier work
[7] = PK of single agents vs fixed dose combinations, single dose in healthy volunteers (Example 13); assay type: in vivo, human
Description: SMV (100 mg), ODV (50 mg), and Compound (III) (800 mg) were administered as three different formulations or together as single doses in vivo to healthy volunteers. The arms of the study included: • Arm 1 (Reference Arm): Single oral doses of single agents, one SMV 100-mg capsule, one ODV 50-mg tablet as granule layered solid dispersion with copovidone and poloxamers, and two Compound (III) 400-mg tablets, administered together. • Arm 2: Single oral dose of fixed dose combination (FDC02): SMV 100 mg+ODV 50 mg as a spray dried solid dispersion with HPMC-AS L in a ratio ODV/HPMC-AS L 1/1 w/w+Compound (III) 800 mg • Arm 3: Single oral dose of fixed dose combination (FDC04): SMV 100 mg+ODV 50 mg as a spray dried solid dispersion with HPMC-AS L in a ratio ODV/HPMC-AS L 1/3 w/w+Compound (III) 800 mg • Arm 4: Single oral dose of fixed dose combination (FDC01): SMV 100 mg+ODV 50 mg as a spray dried solid dispersion with copovidone and poloxamers+Compound (III) 800 mg
PK parameters, including Cmax, tmax, AUClast, and AUC∞ were measured for Compound (III), ODV, SMV, and metabolites Compound A-1 and Compound A-3 for each Arm of the study. Arms that included fixed dose combinations (FDC) (Arm 2, Arm 3, and Arm 4) were then compared to a single oral dose (Arm 1, the reference Arm). Table 9, Table 10, Table 11, Table 12 and Table 13 display relevant PK parameters and FIG. 9, FIG. 10, FIG. 11, FIG. 12, and FIG. 13 depict the plasma concentration over time of SMV, ODV, Compound A-1, and Compound A-3 for each Arm of the study.

[8] = test system: CYP; assay: CYP inhibition potential; conditions: any CYP
[9] = target: T2, OATP1B3 (Homo sapiens, UniProt Q9NPD5); conditions: cited from earlier work
T2 sequence (Q9NPD5 1-702): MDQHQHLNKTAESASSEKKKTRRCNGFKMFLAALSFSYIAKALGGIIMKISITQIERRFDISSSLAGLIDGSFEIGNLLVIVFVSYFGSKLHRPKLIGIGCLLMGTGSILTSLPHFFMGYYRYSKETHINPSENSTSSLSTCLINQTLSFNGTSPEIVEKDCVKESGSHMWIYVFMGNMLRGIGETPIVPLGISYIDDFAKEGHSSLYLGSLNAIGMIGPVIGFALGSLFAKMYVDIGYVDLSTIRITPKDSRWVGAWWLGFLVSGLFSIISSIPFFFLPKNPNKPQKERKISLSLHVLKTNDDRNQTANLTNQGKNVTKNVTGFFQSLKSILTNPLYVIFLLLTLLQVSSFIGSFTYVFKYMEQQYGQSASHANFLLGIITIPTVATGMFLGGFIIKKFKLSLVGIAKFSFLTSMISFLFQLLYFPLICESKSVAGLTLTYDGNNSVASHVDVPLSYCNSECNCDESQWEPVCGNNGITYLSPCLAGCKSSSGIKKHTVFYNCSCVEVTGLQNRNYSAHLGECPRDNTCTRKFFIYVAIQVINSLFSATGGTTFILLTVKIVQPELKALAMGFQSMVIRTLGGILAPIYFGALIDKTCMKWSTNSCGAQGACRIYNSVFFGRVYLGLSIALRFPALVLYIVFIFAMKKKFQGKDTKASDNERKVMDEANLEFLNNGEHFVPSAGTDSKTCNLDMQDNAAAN

Sequence of P-gp (P08183 whole entry): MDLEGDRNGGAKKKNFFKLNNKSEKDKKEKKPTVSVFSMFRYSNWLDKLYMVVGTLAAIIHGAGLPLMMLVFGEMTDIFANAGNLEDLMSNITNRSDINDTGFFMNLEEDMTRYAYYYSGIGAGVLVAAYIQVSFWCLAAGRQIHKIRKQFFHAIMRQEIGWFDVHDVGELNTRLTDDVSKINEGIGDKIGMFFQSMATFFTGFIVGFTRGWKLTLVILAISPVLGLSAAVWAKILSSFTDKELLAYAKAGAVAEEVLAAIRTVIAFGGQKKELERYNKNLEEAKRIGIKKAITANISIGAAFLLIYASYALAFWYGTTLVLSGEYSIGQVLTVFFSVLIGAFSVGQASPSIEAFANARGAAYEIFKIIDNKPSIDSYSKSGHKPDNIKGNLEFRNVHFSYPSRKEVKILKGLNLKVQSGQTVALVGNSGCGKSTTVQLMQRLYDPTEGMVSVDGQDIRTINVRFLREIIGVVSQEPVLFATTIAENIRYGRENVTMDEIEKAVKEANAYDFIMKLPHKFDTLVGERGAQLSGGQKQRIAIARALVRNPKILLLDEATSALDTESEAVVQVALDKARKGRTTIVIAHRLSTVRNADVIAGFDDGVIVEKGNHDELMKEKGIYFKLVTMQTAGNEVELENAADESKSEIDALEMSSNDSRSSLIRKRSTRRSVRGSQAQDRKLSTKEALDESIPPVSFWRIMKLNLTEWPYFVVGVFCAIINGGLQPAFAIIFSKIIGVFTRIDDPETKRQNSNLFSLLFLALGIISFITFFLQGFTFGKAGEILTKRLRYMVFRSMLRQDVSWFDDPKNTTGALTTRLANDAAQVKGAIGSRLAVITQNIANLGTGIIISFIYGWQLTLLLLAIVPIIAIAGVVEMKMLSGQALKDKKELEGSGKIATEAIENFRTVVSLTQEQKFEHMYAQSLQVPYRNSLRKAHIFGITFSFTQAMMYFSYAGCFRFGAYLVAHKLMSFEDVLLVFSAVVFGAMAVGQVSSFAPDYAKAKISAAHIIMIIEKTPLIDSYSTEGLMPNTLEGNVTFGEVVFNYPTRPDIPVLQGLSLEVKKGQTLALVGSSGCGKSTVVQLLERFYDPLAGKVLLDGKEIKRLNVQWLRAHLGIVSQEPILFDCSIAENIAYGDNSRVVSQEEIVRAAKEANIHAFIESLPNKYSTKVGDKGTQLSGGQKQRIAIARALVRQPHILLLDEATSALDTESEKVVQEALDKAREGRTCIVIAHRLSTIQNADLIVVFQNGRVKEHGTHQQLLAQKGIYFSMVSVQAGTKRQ

**Q.** For `COC(=O)N[C@H](C(=O)N1[C@H](c2nc3cc(-c4cc5ccc4CCc4ccc(c(-c6ccc7[nH]c([C@@H]8C[C@@H]9CCCC[C@@H]9N8C(=O)[C@@H](NC(=O)OC)C(C)C)nc7c6)c4)CC5)ccc3[nH]2)C[C@@H]2CCCC[C@@H]21)C(C)C` [Odalasvir, methyl [(2,)-1-[(2S,3aS,7aS)-2-[6-[11-[2-[(2S,3aS,7aS)-1-[(2S)-2-[(methoxycarbonyl)amino]-3-methylbutanoyl]octahydro-1H-indol-2-yl]-1H-benzimidazol-6-yl]tricyclo[8.2.2.2^4,7]hexadeca-1(12),4,6,10,13,15-hexaen-5-yl]-1H-benzimidazol-2-yl]octahydro-1H-indol-1-yl]-3-methyl-1-oxobutan-2-yl]carbamate], which “in vitro inhibition of P-gp” value [1] is on record?
**A.** The value was “moderate inhibition”.

**Q.** What about the “in vitro inhibition of BCRP” value [2] of the same compound?
**A.** The value was “no inhibition”.

**Q.** What about the “in vitro inhibition of BSEP” value [3] of the same compound?
**A.** Its value is “no inhibition”.

**Q.** What about the “effect of Compound (III) on SMV or ODV” value ([4]; DDI study results) of the same compound?
**A.** The value was “no apparent effect”.

**Q.** And the “increase of exposure caused by SMV” value ([4]; DDI study results)?
**A.** Its value is 1.6 ×.

**Q.** What about the “increase of exposure, effect of the three Compounds” value ([4]; DDI study results) of the same compound?
**A.** The value was 1.5 ×.

**Q.** What about the “increase of exposure on co-administration of Compounds I, II and III” value ([4]; human in vivo study (Example 1)) of the same compound?
**A.** The value was 1.5 times.

**Q.** What about the “effect of Compound (III) on bioavailability of SMV or ODV” value ([4]; human, in vivo) of the same compound?
**A.** Its value is “does not alter”.

**Q.** What about the “increase of exposure of ODV by SMV” value ([4]; human, in vivo) of the same compound?
**A.** The value was 1.6 fold.

**Q.** What about the “in vitro inhibition of MRP3” value [5] of the same compound?
**A.** Its value is “no inhibition”.

**Q.** What about the “in vitro inhibition of MRP2” value [6] of the same compound?
**A.** Its value is “no inhibition”.

**Q.** And the t1/2term ([7]; Arm 1 (reference): single agents, mean ± SD)?
**A.** The t1/2term was 168.6 ± 21.7 h.

**Q.** What about the “Least Square Means Ratio, Cmax” value ([7]; Arm 2 (FDC02) vs reference) of the same compound?
**A.** Its value is 81.00%.

**Q.** What about the “AUC∞” value ([7]; Arm 2: FDC02, mean ± SD) of the same compound?
**A.** Its value is 7040 ± 2130 ng·h/mL.

**Q.** What about the t1/2term ([7]; Arm 2: FDC02, mean ± SD) of the same compound?
**A.** The t1/2term was 169.0 ± 24.5 h.

**Q.** And the t1/2term ([7]; Arm 3: FDC04, mean ± SD)?
**A.** Its t1/2term is 176.0 ± 29.5 h.

**Q.** And the Cmax ([7]; Arm 4: FDC01 (SMV 100 mg + ODV 50 mg spray dried with copovidone and poloxamers + Compound (III) 800 mg), mean ± SD)?
**A.** Its Cmax is 298 ± 81.7 ng/mL.

**Q.** And the AUClast ([7]; Arm 4: FDC01, mean ± SD)?
**A.** The AUClast was 11127 ± 3354 ng·h/mL.

**Q.** And the t1/2term ([7]; Arm 4: FDC01, mean ± SD)?
**A.** Its t1/2term is 167.8 ± 22.4 h.

**Q.** What about the CYP inhibition potential [8] of the same compound?
**A.** The CYP inhibition potential was “does not inhibit”.

**Q.** And the “in vitro inhibition of OATP1B3” value [9]?
**A.** The value was “no inhibition”.

From US20180021360A1, “Combination Therapy Regimen For Treatment Of Selected HCV Genotypes” (JANSSEN PHARMACEUTICALS, INC., priority 2016, published 2018)
